# Test results published in patent US20030086873A1, “Myocardial imaging agent and preparation method thereof” (priority 2001, published 2003).
# Experiments:
# [1] = Biological distribution in the bodies of Kunming mice after caudal vein injection; type: in vivo
# Experimental: The complexes [^99mTc(CO)3(OH2)3]^+ and [^99mTc(CO)3(MIBI)3]^+ prepared in Example 1 were separately injected in the caudal vein of Kunming mice. The experiment was conducted on three mice within each time period, and the injection's activity was 925 KBq. The radioactivity of individual organs's tissue was measured at 5, 15, 30, and 60 minutes after the injection, and the results are represented by radioactive uptake rate per gram of tissue.
# The results of the distribution of [^99mTc(CO)3(OH2)3]^+ in the mice's bodies are included in Tables 2; the results for [^99mTc(CO)3(MIBI)3]^+ are presented in Table 3. The value “% ID/g” is the percentage of the injection's total radioactivity that each gram of tissue accounts for i.e., the radioactive uptake rate per gram of tissue, with ID standing for “injected dose.”
# [2] = Dynamic SPECT imaging and biological distribution in dogs after intravenous injection; type: in vivo; conditions: for Heart biological distribution / Kidneys biological distribution / Liver biological distribution / Lungs biological distribution: i.v.
# Experimental: Dogs were intravenously injected with [^99mTc(CO)3(MIBI)3]^+ or [^99mTc(MIBI)6][…]at dose of […]. Immediately following injection, dynamic photography for up to 120 min was performed using a Toshiba GCA 7200A two-probe SPECT and a low energy parallel aperture regular collimator. Time—radioactivity curves were also collected for the heart, liver, lungs, and kidneys. Target/non-target radioactivity ratios were calculated, and fall body imaging was performed separately at different times. The biological distributions of the imaging agents in the body were analyzed. Vein blood samples were collected separately at different times, and the dynamics of the blood clearance was analyzed. Flat myocardial imaging was conducted separately at different times, with myocardial tomographic imaging at 120 minutes post injection.
compound,measurement,setting,value
"[C-]#[N+]CC(C)(C)OC.[C-]#[N+]CC(C)(C)OC.[C-]#[N+]CC(C)(C)OC.[C-]#[N+]CC(C)(C)OC.[C-]#[N+]CC(C)(C)OC.[C-]#[N+]CC(C)(C)OC.[Tc] [[^99mTc(MIBI)6]^+, reference compound]",Target/Non-Target Uptake Ratio Heart/Blood,[1]; 5 Minutes,12.80
same,Target/Non-Target Uptake Ratio Heart/Liver,[1]; 5 Minutes,0.94
same,Target/Non-Target Uptake Ratio Heart/Lungs,[1]; 5 Minutes,2.87
same,Target/Non-Target Uptake Ratio Heart/Blood,[1]; 15 Minutes,35.09
same,Target/Non-Target Uptake Ratio Heart/Liver,[1]; 15 Minutes,0.76
same,Target/Non-Target Uptake Ratio Heart/Lungs,[1]; 15 Minutes,6.08
same,Target/Non-Target Uptake Ratio Heart/Blood,[1]; 30 Minutes,89.04
same,Target/Non-Target Uptake Ratio Heart/Liver,[1]; 30 Minutes,0.90
same,Target/Non-Target Uptake Ratio Heart/Lungs,[1]; 30 Minutes,9.07
same,Target/Non-Target Uptake Ratio Heart/Blood,[1]; 60 Minutes,134.15
same,Target/Non-Target Uptake Ratio Heart/Liver,[1]; 60 Minutes,1.04
same,Target/Non-Target Uptake Ratio Heart/Lungs,[1]; 60 Minutes,12.25
same,Target/Non-Target Uptake Ratio Heart/Kidneys,[2]; 2 Minutes,0.39
same,Target/Non-Target Uptake Ratio Heart/Liver,[2]; 2 Minutes,0.83
same,Target/Non-Target Uptake Ratio Heart/Lungs,[2]; 2 Minutes,2.35
same,Target/Non-Target Uptake Ratio Heart/Kidneys,[2]; 5 Minutes,0.48
same,Target/Non-Target Uptake Ratio Heart/Liver,[2]; 5 Minutes,0.83
same,Target/Non-Target Uptake Ratio Heart/Lungs,[2]; 5 Minutes,2.48
same,Target/Non-Target Uptake Ratio Heart/Kidneys,[2]; 10 Minutes,0.59
same,Target/Non-Target Uptake Ratio Heart/Liver,[2]; 10 Minutes,0.77
same,Target/Non-Target Uptake Ratio Heart/Lungs,[2]; 10 Minutes,2.66
same,Target/Non-Target Uptake Ratio Heart/Kidneys,[2]; 20 Minutes,0.45
same,Target/Non-Target Uptake Ratio Heart/Liver,[2]; 20 Minutes,0.85
same,Target/Non-Target Uptake Ratio Heart/Lungs,[2]; 20 Minutes,2.8
same,Target/Non-Target Uptake Ratio Heart/Kidneys,[2]; 30 Minutes,0.43
same,Target/Non-Target Uptake Ratio Heart/Liver,[2]; 30 Minutes,0.86
same,Target/Non-Target Uptake Ratio Heart/Lungs,[2]; 30 Minutes,2.68
same,Target/Non-Target Uptake Ratio Heart/Kidneys,[2]; 40 Minutes,0.43
same,Target/Non-Target Uptake Ratio Heart/Liver,[2]; 40 Minutes,0.87
same,Target/Non-Target Uptake Ratio Heart/Lungs,[2]; 40 Minutes,2.7
same,Target/Non-Target Uptake Ratio Heart/Kidneys,[2]; 60 Minutes,0.43
same,Target/Non-Target Uptake Ratio Heart/Liver,[2]; 60 Minutes,0.84
same,Target/Non-Target Uptake Ratio Heart/Lungs,[2]; 60 Minutes,2.84
same,Target/Non-Target Uptake Ratio Heart/Kidneys,[2]; 90 Minutes,0.46
same,Target/Non-Target Uptake Ratio Heart/Liver,[2]; 90 Minutes,0.8
same,Target/Non-Target Uptake Ratio Heart/Lungs,[2]; 90 Minutes,2.84
same,Target/Non-Target Uptake Ratio Heart/Kidneys,[2]; 120 Minutes,0.45
same,Target/Non-Target Uptake Ratio Heart/Liver,[2]; 120 Minutes,0.8
same,Target/Non-Target Uptake Ratio Heart/Lungs,[2]; 120 Minutes,2.73
same,Heart biological distribution,[2]; 20 Minutes,3.2 % ID/g
same,Kidneys biological distribution,[2]; 20 Minutes,14.3 % ID/g
same,Liver biological distribution,[2]; 20 Minutes,21.0 % ID/g
same,Lungs biological distribution,[2]; 20 Minutes,6.3 % ID/g
same,Heart biological distribution,[2]; 30 Minutes,3.5 % ID/g
same,Kidneys biological distribution,[2]; 30 Minutes,3.2 % ID/g
same,Liver biological distribution,[2]; 30 Minutes,10.3 % ID/g
same,Lungs biological distribution,[2]; 30 Minutes,6.5 % ID/g
same,Heart biological distribution,[2]; 40 Minutes,2.9 % ID/g
same,Kidneys biological distribution,[2]; 40 Minutes,12.3 % ID/g
same,Liver biological distribution,[2]; 40 Minutes,24.4 % ID/g
same,Lungs biological distribution,[2]; 40 Minutes,6.3 % ID/g
same,Heart biological distribution,[2]; 60 Minutes,3.3 % ID/g
same,Kidneys biological distribution,[2]; 60 Minutes,12.7 % ID/g
same,Liver biological distribution,[2]; 60 Minutes,25.1 % ID/g
same,Lungs biological distribution,[2]; 60 Minutes,5.5 % ID/g
same,Heart biological distribution,[2]; 90 Minutes,3.2 % ID/g
same,Kidneys biological distribution,[2]; 90 Minutes,13.2 % ID/g
same,Liver biological distribution,[2]; 90 Minutes,22.8 % ID/g
same,Lungs biological distribution,[2]; 90 Minutes,6.2 % ID/g
same,Heart biological distribution,[2]; 120 Minutes,3.5 % ID/g
same,Kidneys biological distribution,[2]; 120 Minutes,12.1 % ID/g
same,Liver biological distribution,[2]; 120 Minutes,25.2 % ID/g
same,Lungs biological distribution,[2]; 120 Minutes,5.2 % ID/g
same,Liver time-radioactivity curve relative to the myocardial curve,[2]; in words,higher than the myocardial curve
[^99mTc(CO)3(OH2)3]^+ [reference compound],Blood radioactive uptake per gram of tissue,[1]; 5 Minutes after injection,9.27 ± 1.13 % ID/g
same,Bones radioactive uptake per gram of tissue,[1]; 5 Minutes after injection,2.82 ± 0.95 % ID/g
same,Brain radioactive uptake per gram of tissue,[1]; 5 Minutes after injection,0.31 ± 0.09 % ID/g
same,Heart radioactive uptake per gram of tissue,[1]; 5 Minutes after injection,2.68 ± 0.88 % ID/g
same,Kidneys radioactive uptake per gram of tissue,[1]; 5 Minutes after injection,18.29 ± 4.22 % ID/g
same,Liver radioactive uptake per gram of tissue,[1]; 5 Minutes after injection,10.33 ± 0.82 % ID/g
same,Lungs radioactive uptake per gram of tissue,[1]; 5 Minutes after injection,6.53 ± 1.41 % ID/g
same,Muscles radioactive uptake per gram of tissue,[1]; 5 Minutes after injection,1.47 ± 0.37 % ID/g
same,Spleen radioactive uptake per gram of tissue,[1]; 5 Minutes after injection,2.02 ± 1.02 % ID/g
same,Blood radioactive uptake per gram of tissue,[1]; 15 Minutes after injection,6.04 ± 0.73 % ID/g
same,Bones radioactive uptake per gram of tissue,[1]; 15 Minutes after injection,1.68 ± 0.22 % ID/g
same,Brain radioactive uptake per gram of tissue,[1]; 15 Minutes after injection,0.27 ± 0.03 % ID/g
same,Heart radioactive uptake per gram of tissue,[1]; 15 Minutes after injection,2.39 ± 0.66 % ID/g
same,Kidneys radioactive uptake per gram of tissue,[1]; 15 Minutes after injection,14.25 ± 1.78 % ID/g
same,Liver radioactive uptake per gram of tissue,[1]; 15 Minutes after injection,11.95 ± 0.66 % ID/g
same,Lungs radioactive uptake per gram of tissue,[1]; 15 Minutes after injection,5.38 ± 0.76 % ID/g
same,Muscles radioactive uptake per gram of tissue,[1]; 15 Minutes after injection,1.46 ± 0.48 % ID/g
same,Spleen radioactive uptake per gram of tissue,[1]; 15 Minutes after injection,2.38 ± 0.37 % ID/g
same,Blood radioactive uptake per gram of tissue,[1]; 30 Minutes after injection,5.79 ± 0.66 % ID/g
same,Bones radioactive uptake per gram of tissue,[1]; 30 Minutes after injection,2.38 ± 0.54 % ID/g
same,Brain radioactive uptake per gram of tissue,[1]; 30 Minutes after injection,0.29 ± 0.06 % ID/g
same,Heart radioactive uptake per gram of tissue,[1]; 30 Minutes after injection,2.39 ± 0.56 % ID/g
same,Kidneys radioactive uptake per gram of tissue,[1]; 30 Minutes after injection,13.88 ± 1.02 % ID/g
same,Liver radioactive uptake per gram of tissue,[1]; 30 Minutes after injection,10.83 ± 1.68 % ID/g
same,Lungs radioactive uptake per gram of tissue,[1]; 30 Minutes after injection,5.37 ± 0.78 % ID/g
same,Muscles radioactive uptake per gram of tissue,[1]; 30 Minutes after injection,1.66 ± 0.61 % ID/g
same,Spleen radioactive uptake per gram of tissue,[1]; 30 Minutes after injection,2.94 ± 0.69 % ID/g
same,Blood radioactive uptake per gram of tissue,[1]; 60 Minutes after injection,4.50 ± 0.72 % ID/g
same,Bones radioactive uptake per gram of tissue,[1]; 60 Minutes after injection,1.65 ± 0.12 % ID/g
same,Brain radioactive uptake per gram of tissue,[1]; 60 Minutes after injection,0.22 ± 0.03 % ID/g
same,Heart radioactive uptake per gram of tissue,[1]; 60 Minutes after injection,2.08 ± 0.31 % ID/g
same,Kidneys radioactive uptake per gram of tissue,[1]; 60 Minutes after injection,12.28 ± 2.32 % ID/g
same,Liver radioactive uptake per gram of tissue,[1]; 60 Minutes after injection,10.73 ± 0.90 % ID/g
same,Lungs radioactive uptake per gram of tissue,[1]; 60 Minutes after injection,5.19 ± 1.18 % ID/g
same,Muscles radioactive uptake per gram of tissue,[1]; 60 Minutes after injection,1.37 ± 0.80 % ID/g
same,Spleen radioactive uptake per gram of tissue,[1]; 60 Minutes after injection,3.20 ± 0.80 % ID/g
same,Specific concentration in tissues / heart,[1]; in words,no specific concentration
same,Radioactive retention,"[1]; within 60 minutes, in words",good radioactive retention
